Data: US8329726B2, “Inhibitors of VEGF receptor and HGF receptor signaling” (MethylGene Inc., priority 2005, dated 2012)

How the values were obtained:
A549 = experiment: In vivo solid tumor disease model, A549; parameters: species or system female athymic CD1 mice; details: 14 days
[1] = molecular target: T1, recombinant human c-Met/HGF receptor (Homo sapiens, UniProt P08581); experiment: In vitro receptor tyrosine kinase assay (DELFIA), c-Met/HGF receptor; type: biochemical; details: recombinant c-Met IC, 10 uM ATP, DELFIA; read-out: C-Met (IC50)
T1 construct: His tag (pBlueBacHis2A vector); made in house; host or cells: Hi-5 cells (Trichoplusia ni), baculovirus
Procedure: Cell pellets were frozen at −80° C. until purification was performed.
The coated plates were washed and stored at 4° C. […] After incubation, the kinase reactions were quenched with EDTA and the plates were washed.

VEGF receptor KDR = molecular target: T2, VEGF receptor KDR (Homo sapiens, UniProt P35968); experiment: In vitro receptor tyrosine kinase assay (DELFIA), VEGF receptor KDR; type: biochemical; details: GST-VEGFR2 806-1356, 0.6 uM ATP, DELFIA; read-out: VEGFR (IC50)
T2 construct: made in house; host or cells: Sf9 cells (Spodoptera frugiperda), baculovirus

TPR-MET fusion protein = molecular target: T3, TPR-MET fusion protein (Homo sapiens, UniProt P08581); experiment: C-Met phosphorylation cell-based assay (MNNGHOS cells); details: MNNGHOS cells, 3 hours treatment, immunoblot; read-out: Y1230-34-35 TPR-MET phosphorylation (IC50)
T3 construct: the MET gene on chromosome 7 encoding for its cytoplasmic region catalytic domain; host or cells: MNNGHOS cells; the other entry of the earlier key: TPR (P12270, Nucleoprotein TPR)
Source text: C-Met Phosphorylation Cell-Based Assay
Signal was quantitated by densitometry on Alpha-Imager.

U87MG = experiment: In vivo solid tumor disease model, U87MG; parameters: species or system female athymic CD1 mice; details: 75 mg/kg p.o. once daily, 14 days
Source text: In Vivo Solid Tumor Disease Model
This test measures the capacity of compounds to inhibit solid tumor growth.
Tumor xenografts are established in the flank of female athymic CD1 mice (Charles River Inc.), by subcutaneous injection of 1×10^6 U87, A431 or SKLMS cells/mouse. Once established, tumors are then serially passaged s.c. in nude mice hosts. Tumor fragments from these host animals are used in subsequent compound evaluation experiments. For compound evaluation experiments female nude mice weighing approximately 20 g are implanted s.c. by surgical implantation with tumor fragments of ˜30 mg from donor tumors. When the tumors are approximately 100 mm^3 in size (˜7-10 days following implantation), the animals are randomized and separated into treatment and control groups. Each group contains 6-8 tumor-bearing mice, each of which is ear-tagged and followed individually throughout the experiment.
Mice are weighed and tumor measurements are taken by calipers three times weekly, starting on Day 1. These tumor measurements are converted to tumor volume by the well-known formula […]. The experiment is terminated when the control tumors reach a size of approximately 1500 mm^3. […] In addition to tumor volumes, body weight of animals is monitored twice weekly for up to 3 weeks. […]

Colo265 = experiment: In vivo solid tumor disease model, Colo265; parameters: species or system female athymic CD1 mice; details: Colo265, 30 mg/kg i.p. once daily, 14 days
MV4-11 = experiment: In vivo solid tumor disease model, MV4-11; parameters: species or system female athymic CD1 mice; details: MV4-11, 20 mg/kg p.o. once daily, 14 days

T2 sequence (P35968 806-1356): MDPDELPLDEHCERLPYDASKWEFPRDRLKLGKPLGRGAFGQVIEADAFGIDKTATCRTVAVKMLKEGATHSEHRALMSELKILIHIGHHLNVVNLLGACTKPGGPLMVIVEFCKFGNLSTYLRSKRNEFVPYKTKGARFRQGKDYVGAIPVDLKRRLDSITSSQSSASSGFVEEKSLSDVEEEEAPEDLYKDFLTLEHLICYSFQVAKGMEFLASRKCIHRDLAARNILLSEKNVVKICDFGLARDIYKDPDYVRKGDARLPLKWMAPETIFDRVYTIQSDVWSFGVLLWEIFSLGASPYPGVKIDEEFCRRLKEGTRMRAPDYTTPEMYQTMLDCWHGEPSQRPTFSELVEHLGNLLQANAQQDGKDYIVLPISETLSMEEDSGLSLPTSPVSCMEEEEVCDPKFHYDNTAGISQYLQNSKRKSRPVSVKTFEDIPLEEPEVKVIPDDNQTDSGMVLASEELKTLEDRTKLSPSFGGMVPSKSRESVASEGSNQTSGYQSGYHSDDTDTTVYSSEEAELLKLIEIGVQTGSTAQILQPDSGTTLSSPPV
T1 sequence (P08581 1078-1337): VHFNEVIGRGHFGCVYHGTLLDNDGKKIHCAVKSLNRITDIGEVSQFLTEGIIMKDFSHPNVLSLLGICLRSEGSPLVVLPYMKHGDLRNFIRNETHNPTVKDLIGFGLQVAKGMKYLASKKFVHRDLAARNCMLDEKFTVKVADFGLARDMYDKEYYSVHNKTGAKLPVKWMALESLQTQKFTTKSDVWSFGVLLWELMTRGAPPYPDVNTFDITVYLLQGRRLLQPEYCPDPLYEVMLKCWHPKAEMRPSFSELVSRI
T3 sequence (P08581 with tags, fused parts or gaps): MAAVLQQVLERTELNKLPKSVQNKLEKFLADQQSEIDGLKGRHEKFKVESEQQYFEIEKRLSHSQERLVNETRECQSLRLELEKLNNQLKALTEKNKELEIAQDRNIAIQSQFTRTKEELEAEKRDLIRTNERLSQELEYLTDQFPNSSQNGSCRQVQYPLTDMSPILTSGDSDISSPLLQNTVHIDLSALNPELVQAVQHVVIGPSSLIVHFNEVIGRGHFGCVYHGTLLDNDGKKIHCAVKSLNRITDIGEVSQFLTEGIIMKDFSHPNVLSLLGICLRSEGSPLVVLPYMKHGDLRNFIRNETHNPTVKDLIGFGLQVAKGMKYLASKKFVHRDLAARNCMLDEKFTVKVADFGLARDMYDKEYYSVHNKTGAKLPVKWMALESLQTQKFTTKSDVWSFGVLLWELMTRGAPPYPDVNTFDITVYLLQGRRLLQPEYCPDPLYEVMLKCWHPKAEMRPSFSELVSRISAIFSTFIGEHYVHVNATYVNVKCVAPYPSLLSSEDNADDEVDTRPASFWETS

IC50 [1] [nM]	IC50 (VEGF receptor KDR) [nM]	IC50 (TPR-MET fusion protein) [nM]	SMILES	other results
			CCn1cnc(-c2cc3nccc(Oc4ccc(NC(=O)C5(C(=O)Nc6ccccc6)CC5)cc4F)c3s2)c1 [drawing 463]	Tumor Growth Inhibition (%) (A549; A549, 40 mg/kg p.o. once daily): b (% TGI in the range of 50-74)
40	13	590	COc1ccccc1NC(=O)CC(=O)Nc1ccc(Oc2ccnc3cc(-c4cncn4C)sc23)c(F)c1 [Compound 28c, N^1-(3-Fluoro-4-(2-(1-methyl-1H-imidazol-5-yl)thieno[3,2-h]pyridin-7-yloxy)phenyl)-N^3-(2-methoxyphenyl)malonamide]	
			CN(C)Cc1cccc(-c2cc3nccc(Oc4ccc(NC(=O)CC(=O)Nc5ccccc5F)cc4F)c3s2)c1 [drawing 462]	Tumor Growth Inhibition (%) (A549; A549, 20 mg/kg p.o. once daily): b (% TGI in the range of 50-74)
109	5	> 5000	CN(C(=O)CC(=O)Nc1ccc(Oc2ccnc3cc(-c4nccn4C)sc23)c(F)c1)c1ccccc1 [Compound 32, N^1-(3-Fluoro-4-(2-(1-methyl-1H-imidazol-2-yl)thieno[3,2-b]pyridin-7-yloxy)phenyl)-N^3-methyl-N^3-phenylmalonamide]	
			CCn1cnc(-c2cc3nccc(Oc4ccc(NC(=O)CC(=O)Nc5ccccc5F)cc4F)c3s2)c1 [drawing 461]	Tumor Growth Inhibition (%) (U87MG): b (% TGI in the range of 50-74)
			CN(C(=O)CC(=O)Nc1ccc(Oc2ccnc3cc(-c4cn(CCN5CCCC5)cn4)sc23)c(F)c1)c1ccccc1	Tumor Growth Inhibition (%) (Colo265): b (% TGI in the range of 50-74)
52	4	40	Cn1ccnc1-c1cc2nccc(Oc3ccc(NC(=O)CC(=O)Nc4ccccc4)cc3F)c2s1 [Compound 5b, N^1-(3-Fluoro-4-(2-(1-methyl-1H-imidazol-2-yl)thieno[3,2-b]pyridin-7-yloxy)phenyl)-N^3-phenylmalonamide]	
40	4	~2000	O=C(CC(=O)Nc1ccc(Oc2ccnc3cc(C(=O)N4CCCC4)sc23)c(F)c1)Nc1ccccc1 [Compound 5f, N^1-(3-Fluoro-4-(2-(pyrrolidine-1-carbonyl)thieno[3,2-b]pyridin-7-yloxy)phenyl)-N^3-phenylmalonamide]	
			CCn1cnc(-c2cc3nccc(Oc4ccc(NC(=O)CC(=O)Nc5ccccc5)cc4F)c3s2)c1 [drawing 460]	Tumor Growth Inhibition (%) (U87MG): b (% TGI in the range of 50-74)
			CN1CCN(CCN(C)Cc2ccc(-c3cc4nccc(Oc5ccc(NC(=O)CC(=O)Nc6ccccc6)cc5F)c4s3)cc2)CC1 [drawing 464]	Tumor Growth Inhibition (%) (MV4-11): b (% TGI in the range of 50-74)
